According to ChEMBL document CHEMBL1150230, “Mappain, a new cytotoxic prenylated stilbene from Macaranga mappa” (J Nat Prod, 2001):

How the values were obtained:
Format in all cases: functional, cell-based
SK-OV-3 = test: Cytotoxicity against multidrug-sensitive human SKOV3 cells by SRB assay
[1] = Cytotoxicity against multidrug-resistant human SKVLB1cells by SRB assay
MDA-MB-435 = test: Cytotoxicity against multidrug-sensitive human MDA-MB-435 cells by SRB assay

## CC(C)=CCC/C(C)=C/Cc1cc(/C=C/c2cc(O)c(CC=C(C)C)c(O)c2)cc(O)c1O [MAPPAIN]
SK-OV-3
  IC50: 1300 nM
[1]
  IC50: 1300 nM
MDA-MB-435
  IC50: 1000 nM
